Results on 15 compounds are retold here after PubChem BioAssay (NCI).

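Cultured in 96-well plates, cells were exposed to test compound for 48 hours across five concentrations. Here, GI50 denotes the concentration required for 50% inhibition of growth. TGI is the concentration that stops growth completely.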

Among the test systems are KM12 colon; HOP-62 NSCLC; OVCAR-8 ovarian; SF-268 CNS; HCC-2998 colon; MALME-3M melanoma; SN12C renal; DU-145 prostate; NCI-H522 lung; MDA-N.
Holding throughout (experiment): NCI anticancer screen, dose series, 48 h

Turning to `O=C1Nc2ccccc2/C1=C\c1c(Cl)n(-c2ccccc2)c2ccccc12`, the TGI in the assay on KM12 colon was 14 µM; with HOP-62 NSCLC, 20.6 µM; with OVCAR-8 ovarian it was 40.8 µM; in the assay with SF-268 CNS it was 6.45 µM; with HCC-2998 colon, 9.83 µM; with MALME-3M melanoma, 10.4 µM. The TGI came to 14.6 µM with SN12C renal and 8.91 µM in the assay with DU-145 prostate.

With `CC(C)CCCC(C)[C@H]1CCC(C2C[C@@H](O)[C@@H]3CC(O)[C@@H](O)C[C@]3(CO)C2=O)[C@]1(C)CCO` (stereo partly drawn), the TGI in the assay with KM12 colon was 19.6 µM; in the assay with HOP-62 NSCLC it was 52.8 µM; in the assay on NCI-H522 lung, 73.8 µM; in the assay with OVCAR-8 ovarian, above 76.1 µM; with SF-268 CNS, 54.1 µM; with HCC-2998 colon, 38.4 µM. Moreover, the values for the TGI in the assay with MALME-3M melanoma and in the assay on SN12C renal were 44.8 µM and above 74.1 µM, respectively.

As to `CCOP(=O)(/C=C/n1cc(C)c(=O)[nH]c1=O)OCC`, the TGI with KM12 colon, in the assay with HOP-62 NSCLC, in the assay with NCI-H522 lung, in the assay with OVCAR-8 ovarian, with SF-268 CNS and in the assay with MDA-N was above 100 µM in each case. The TGI with SN12C renal and with DU-145 prostate was above 100 µM each time.

Regarding `O=C(O)CSC(CC(=O)c1ccc(Cl)cc1)c1ccc(Cl)cc1` (stereo not drawn), the TGI in the assay with KM12 colon was 27.6 µM; in the assay on HOP-62 NSCLC, 97.1 µM; in the assay on NCI-H522 lung it was 45.3 µM; in the assay with OVCAR-8 ovarian it was 57 µM; in the assay with SF-268 CNS, 79 µM; with MDA-N, above 100 µM. Moreover, the TGI in the assay with SN12C renal and with DU-145 prostate was above 100 µM in each case.

Consider `COc1ccccc1NC(=O)C(=O)C(C(=O)c1ccccc1F)C1OC(=O)c2ccccc21` (stereo not drawn), for which the TGI was 64 µM in the assay on KM12 colon; above 100 µM in the assay on HOP-62 NSCLC; 35.7 µM in the assay on NCI-H522 lung; 47.2 µM in the assay with OVCAR-8 ovarian; above 100 µM in the assay on SF-268 CNS; 28.8 µM in the assay with HCC-2998 colon. The same compound showed a TGI with SN12C renal of 87.2 µM.

In the case of `C[s+]1c2ccccc2c2ccccc21`, the TGI in the assay on KM12 colon, in the assay on HOP-62 NSCLC, in the assay with NCI-H522 lung, in the assay on OVCAR-8 ovarian, in the assay with SF-268 CNS and in the assay with HCC-2998 colon was above 100 µM each time. For the same compound, the TGI in the assay on MALME-3M melanoma and in the assay on SN12C renal was above 100 µM in each case.

On to `C/C(=C1\N=C(c2ccccc2)OC1=O)c1ccccc1`, for which the TGI with KM12 colon, in the assay with HOP-62 NSCLC, with NCI-H522 lung, in the assay on OVCAR-8 ovarian, in the assay on SF-268 CNS and with HCC-2998 colon was above 100 µM throughout. Also, the TGI in the assay with MALME-3M melanoma and in the assay on DU-145 prostate was above 100 µM each time.

In the case of `Cc1cn(CCCCCCOC(=O)NC(CCCNC(N)=O)C(=O)O)c(=O)[nH]c1=O` (stereo not drawn), the TGI with KM12 colon, in the assay on HOP-62 NSCLC, in the assay with OVCAR-8 ovarian, in the assay on SF-268 CNS, with HCC-2998 colon and with MDA-N was above 100 µM in each case. Further, the TGI with SN12C renal and in the assay on DU-145 prostate was above 100 µM throughout.

For the compound `N[C@@H](CCC(=O)NC(Cc1ccccc1)C(=O)NCP(=O)(O)O)C(=O)O` (stereo partly drawn), the TGI with KM12 colon, with HOP-62 NSCLC, in the assay on NCI-H522 lung, in the assay on OVCAR-8 ovarian, with HCC-2998 colon and with MALME-3M melanoma was above 100 µM each time. The TGI in the assay on MDA-N and in the assay on SN12C renal was above 100 µM throughout.

Regarding `O=C1c2cc3c(cc2-c2c1c1cc(F)c(F)cc1c(=O)n2CCCn1ccnc1)OCO3`, the GI50 is 0.0469 µM with KM12 colon; below 0.01 µM in the assay on HOP-62 NSCLC; 0.0124 µM in the assay on NCI-H522 lung; 0.022 µM in the assay on OVCAR-8 ovarian; below 0.01 µM with SF-268 CNS; 0.195 µM with HCC-2998 colon. The GI50 is 0.0856 µM in the assay with MALME-3M melanoma and below 0.01 µM with DU-145 prostate. Further, the TGI in the assay with KM12 colon was 14.7 µM; with HOP-62 NSCLC, 0.0477 µM; with NCI-H522 lung, 0.432 µM; with OVCAR-8 ovarian it was above 100 µM; in the assay with SF-268 CNS, above 100 µM; in the assay on HCC-2998 colon it was above 100 µM. For the same compound, the TGI with MALME-3M melanoma was 1.21 µM; in the assay with DU-145 prostate it was above 100 µM.

As to `O=P1(N(CCCl)CCCl)Oc2ccc(Cl)cc2C(C(Cl)(Cl)Cl)c2cc(Cl)ccc2O1` (stereo not drawn), the TGI with KM12 colon was 33.4 µM; in the assay with HOP-62 NSCLC, 27.9 µM; with NCI-H522 lung, 42.9 µM; in the assay on OVCAR-8 ovarian, above 100 µM; in the assay with SF-268 CNS, above 100 µM; in the assay on HCC-2998 colon it was 34.3 µM. The values for the TGI with MDA-N, in the assay with SN12C renal and in the assay with DU-145 prostate were 87.7 µM, 57.6 µM and above 100 µM, respectively.

On to `CCOc1ccc2nc(NC(=O)C(=O)C(C(=O)c3ccccc3F)C3OC(=O)c4ccccc43)sc2c1` (stereo not drawn), for which the TGI with KM12 colon is 19 µM; in the assay with HOP-62 NSCLC, above 100 µM; in the assay with NCI-H522 lung, 27.8 µM; in the assay on OVCAR-8 ovarian it was 32.8 µM; with SF-268 CNS, 82 µM; with HCC-2998 colon, 29.7 µM. In addition, in the assay on SN12C renal, the TGI is 54.1 µM.

As for `N#Cc1ccccc1NC(=O)C(=O)C(C(=O)c1ccccc1F)C1OC(=O)c2ccccc21` (stereo not drawn), the TGI was above 100 µM in the assay on KM12 colon; above 100 µM in the assay on HOP-62 NSCLC; 75.1 µM with NCI-H522 lung; above 100 µM in the assay with OVCAR-8 ovarian; above 100 µM in the assay with SF-268 CNS; 53.4 µM with HCC-2998 colon. The TGI in the assay with SN12C renal was above 100 µM.

`COc1cc2c(/C=C3/C(=O)Nc4ccccc43)c(Cl)n(Cc3ccc(Cl)cc3)c2cc1C`: the TGI with KM12 colon turned out to be 1.02 µM; with HOP-62 NSCLC, 0.821 µM; with NCI-H522 lung, 2.06 µM; with OVCAR-8 ovarian, 0.989 µM; in the assay with SF-268 CNS, 21.3 µM; in the assay on HCC-2998 colon it was 0.432 µM. In addition, the TGI with MALME-3M melanoma came out at 14.5 µM; with SN12C renal, 1.06 µM; in the assay on DU-145 prostate it was 1.07 µM.

In the case of `CCc1nc(N)c2nc(-c3cccs3)oc2n1`, the TGI in the assay on KM12 colon, with HOP-62 NSCLC, with NCI-H522 lung, in the assay on OVCAR-8 ovarian, in the assay with SF-268 CNS and with HCC-2998 colon was above 100 µM in each case. Further, the TGI in the assay with MDA-N, in the assay with SN12C renal and in the assay on DU-145 prostate was above 100 µM in each case.
